In patent US20110123482A1, “Methods of Treating Neurological Autoimmune Disorders with Cyclophosphamide” (The Johns Hopkins University, priority 2007, published 2011):
Read-outs that look alike come from different tables or passages of the source.

Legend:
[1] = test system: chronic relapsing experimental autoimmune encephalomyelitis (R-EAE) in SJL/J mice; details: mouse, in vivo
RRMS = details: cited from earlier work
class II MHC molecules = details: cited from earlier work

| Compound | rate of induced relapse with PLP reimmunization following CPA treatment [1] | spontaneous relapse rate of RR-EAE following CPA treatment [1] | cessation of EAE activity, share of animals ([1]; 200 mg/kg) | induced relapse rate [1] | rate of cessation of EAE activity by CPA [1] | spontaneous relapse rate [1] | time of treatment to reduce the number of lesions and relapses (RRMS; 20 mg GA, compared to placebo controls) | time of treatment to reduce the number of lesions and relapses (RRMS; 40 mg daily, compared to controls) | binding affinity to class II MHC molecules (class II MHC molecules) |
| --- | --- | --- | --- | --- | --- | --- | --- | --- | --- |
| O=P1(N(CCCl)CCCl)NCCCO1 (stereo not drawn) [CPA, N,N-bis(2-chloroethyl)-1,3,2-oxazaphosphinan-2-amine 2-oxide] | 70% | 30% | 95% |  |  |  |  |  |  |
| glatiramer acetate |  |  |  | 10% | 95% | 2% | approximately 3 months | less than 3 months | binds with high affinity |
